pIC50: −log10 of the molar value.

For this experiment, the system named is HBsAg. The experiment in a line: HBsAg assay (chemiluminescence immunoassay of secreted HBsAg). Type of experiment: cell-based, HBV. To be noted: Hepatitis B virus, HepG2.2.15, HBsAg secretion, HepG2.2.15 cells, CLIA of culture supernatant. Summed up: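 HepG2.2.15 cells, in duplicate, treated with three-fold serial compound dilutions (1% DMSO final); secreted HBsAg in supernatant quantified by chemiluminescence immunoassay; IC50 is the concentration reducing HBsAg secretion by 50% versus the DMSO control.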
Consider `CC1c2cnc(-c3ncccn3)nc2CCN1c1cc(N2CC(O)C2)cc(F)n1` (stereo not shown) [Example 124, 1-[2-Fluoro-6-(5-methyl-2-pyrimidin-2-yl-7,8-dihydro-5H-pyrido[4,3-d]pyrimidin-6-yl)-4-pyridyl]azetidin-3-ol], for which the negative logarithm of the IC50 (pIC50) (usually −log10 of the IC50, conventionally taken in molar units) was 7.48.

`CC1c2cnc(-c3ncccn3)nc2CCN1c1cc(F)cc(N2CCC(C(=O)NS(C)(=O)=O)CC2)n1` (stereo not shown) [Example 65, 1-[4-fluoro-6-(5-methyl-2-pyrimidin-2-yl-7,8-dihydro-5H-pyrido[4,3-d]pyrimidin-6-yl)-2-pyridyl]-N-methylsulfonyl-piperidine-4-carboxamide] had a pIC50 of 5.35.

`CC(=O)N1CCN(c2cc(F)nc(N3CCc4nc(-c5ccccn5)ncc4C3C)c2)CC1` (stereo not shown) [Example 69, 1-[4-[2-fluoro-6-[5-methyl-2-(2-pyridyl)-7,8-dihydro-5H-pyrido[4,3-d]pyrimidin-6-yl]-4-pyridyl]piperazin-1-yl]ethanone] showed a negative-log IC50 (pIC50) of 7.85.

Take `CC1CN(c2cc(F)cc(N3CCc4nc(-c5ncccn5)ncc4C3C)n2)CCO1` (stereo not shown) [Example 5, 4-[4-fluoro-6-(5-methyl-2-pyrimidin-2-yl-7,8-dihydro-5H-pyrido[4,3-d]pyrimidin-6-yl)-2-pyridyl]-2-methyl-morpholine]: the pIC50 was 7.70.

Turning to `CC1c2cnc(-c3ncccn3)nc2CCN1c1cc(N2CC(NS(C)(=O)=O)C2)cc(F)n1` (stereo not shown) [Example 119, N-[1-[2-fluoro-6-(5-methyl-2-pyrimidin-2-yl-7,8-dihydro-5H-pyrido[4,3-d]pyrimidin-6-yl)-4-pyridyl]azetidin-3-yl]methanesulfonamide], the negative logarithm of the IC50 (pIC50) was 7.24.

As to `CC1c2cnc(-c3ncccn3)nc2CCN1c1cc(F)cc(N2CCN(CC(N)=O)CC2)n1` (stereo not shown) [Example 101, 2-[4-[4-fluoro-6-(5-methyl-2-pyrimidin-2-yl-7,8-dihydro-5H-pyrido[4,3-d]pyrimidin-6-yl)-2-pyridyl]piperazin-1-yl]acetamide], the pIC50 was 7.22.

In the case of `CC1c2cnc(-c3ccccn3)nc2CCN1c1cc(N2CCCC(C(N)=O)C2)cc(F)n1` (stereo not shown) [Example 75, 1-[2-fluoro-6-[5-methyl-2-(2-pyridyl)-7,8-dihydro-5H-pyrido[4,3-d]pyrimidin-6-yl]-4-pyridyl]piperidine-3-carboxamide], the pIC50 is 7.41.

Compound `CC1c2cnc(-c3ncccn3)nc2CCN1c1cc(F)cc(N2CCN(S(C)(=O)=O)CC2)n1` (stereo not shown) [Example 57, 6-[4-fluoro-6-(4-methylsulfonylpiperazin-1-yl)-2-pyridyl]-5-methyl-2-pyrimidin-2-yl-7,8-dihydro-5H-pyrido[4,3-d]pyrimidine] showed a pIC50 of 7.55.

As to `COCC1CN(c2cc(F)cc(N3CCc4nc(-c5ncccn5)ncc4C3C)n2)CCO1` (stereo not shown) [Example 15, 4-[4-fluoro-6-(5-methyl-2-pyrimidin-2-yl-7,8-dihydro-5H-pyrido[4,3-d]pyrimidin-6-yl)-2-pyridyl]-2-(methoxymethyl)morpholine], the pIC50 was 7.52.

As for `CC1c2cnc(-c3ncccn3)nc2CCN1c1cc(F)cc(N2CCN(CCC(N)=O)CC2)n1` (stereo not shown) [Example 103, 3-[4-[4-fluoro-6-(5-methyl-2-pyrimidin-2-yl-7,8-dihydro-5H-pyrido[4,3-d]pyrimidin-6-yl)-2-pyridyl]piperazin-1-yl]propanamide], the negative logarithm of the IC50 (pIC50) is 5.87.

In turn, `CC1c2cnc(-c3ncccn3)nc2CCN1c1cc(F)cc(NC2CNC2)n1` (stereo not shown) [Example 120, N-(azetidin-3-yl)-4-fluoro-6-(5-methyl-2-pyrimidin-2-yl-7,8-dihydro-5H-pyrido[4,3-d]pyrimidin-6-yl)pyridin-2-amine] had a negative-log IC50 (pIC50) of 4.48.

For the compound `CC1c2cnc(-c3ncccn3)nc2CCN1c1cc(F)cc(N2CC(CO)C2)n1` (stereo not shown) [Example 136, [1-[4-fluoro-6-(5-methyl-2-pyrimidin-2-yl-7,8-dihydro-5H-pyrido[4,3-d]pyrimidin-6-yl)-2-pyridyl]azetidin-3-yl]methanol], the pIC50 was 7.64.

For `CC1c2cnc(-c3ncccn3)nc2CCN1c1cc(NC2CCN(S(C)(=O)=O)CC2)cc(F)n1` (stereo not shown) [Example 96, 2-Fluoro-6-(5-methyl-2-pyrimidin-2-yl-7,8-dihydro-5H-pyrido[4,3-d]pyrimidin-6-yl)-N-(1-methylsulfonyl-4-piperidyl)pyridin-4-amine], the pIC50 is 6.90.

Consider `CC1c2cnc(-c3ncccn3)nc2CCN1c1cc(N2CC(F)(F)C2)cc(F)n1` (stereo not shown) [Example 126, 6-[4-(3,3-difluoroazetidin-1-yl)-6-fluoro-2-pyridyl]-5-methyl-2-pyrimidin-2-yl-7,8-dihydro-5H-pyrido[4,3-d]pyrimidine], for which the negative-log IC50 (pIC50) was 7.92.

`CC1c2cnc(-c3ncccn3)nc2CCN1c1cc(NC2CCOCC2)cc(F)n1` (stereo not shown) [Example 48, 2-fluoro-6-(5-methyl-2-pyrimidin-2-yl-7,8-dihydro-5H-pyrido[4,3-d]pyrimidin-6-yl)-N-tetrahydropyran-4-yl-pyridin-4-amine] showed a pIC50 of 7.26.

`CC1c2cnc(-c3ncccn3)nc2CCN1c1cc(F)cc(N2CCN(CC(=O)O)CC2)n1` (stereo not shown) [Example 95, 2-[4-[4-fluoro-6-(5-methyl-2-pyrimidin-2-yl-7,8-dihydro-5H-pyrido[4,3-d]pyrimidin-6-yl)-2-pyridyl]piperazin-1-yl]acetic acid] gave a pIC50 of 5.42.

Turning to `CC1c2cnc(-c3ncccn3)nc2CCN1c1cc(N(C)C(=O)C2CC2)cc(F)n1` (stereo not shown) [Example 156, N-[2-Fluoro-6-(5-methyl-2-pyrimidin-2-yl-7,8-dihydro-5H-pyrido[4,3-d]pyrimidin-6-yl)-4-pyridyl]-N-methyl-cyclopropanecarboxamide], the pIC50 is 7.52.

Compound `CC1c2cnc(-c3ncccn3)nc2CCN1c1cc(N2CCNC2=O)cc(F)n1` (stereo not shown) [Example 157, 1-[2-Fluoro-6-(5-methyl-2-pyrimidin-2-yl-7,8-dihydro-5H-pyrido[4,3-d]pyrimidin-6-yl)-4-pyridyl]imidazolidin-2-one] gave a pIC50 of 8.22.

`COC1CCN(c2cc(F)cc(N3CCc4nc(-c5ncccn5)ncc4C3C)n2)C1` (stereo not shown) [Example 21, 6-[4-fluoro-6-(3-methoxypyrrolidin-1-yl)-2-pyridyl]-5-methyl-2-pyrimidin-2-yl-7,8-dihydro-5H-pyrido[4,3-d]pyrimidine] had a negative-log IC50 (pIC50) of 7.89.

On to `CC(=O)NC1CN(c2cc(F)nc(N3CCc4nc(-c5ncccn5)ncc4C3C)c2)C1` (stereo not shown) [Example 132, N-[1-[2-fluoro-6-(5-methyl-2-pyrimidin-2-yl-7,8-dihydro-5H-pyrido[4,3-d]pyrimidin-6-yl)-4-pyridyl]azetidin-3-yl]acetamide], for which the pIC50 is 7.62.

Consider `CC1c2cnc(-c3ncccn3)nc2CCN1c1cc(F)cc(N2CC3(COC3)C2)n1` (stereo not shown) [Example 129, 6-[4-fluoro-6-(5-methyl-2-pyrimidin-2-yl-7,8-dihydro-5H-pyrido[4,3-d]pyrimidin-6-yl)-2-pyridyl]-2-oxa-6-azaspiro[3.3]heptane], for which the negative-log IC50 (pIC50) is 7.44.

Turning to `CC1c2cnc(-c3ncccn3)nc2CCN1c1cc(NCCCCCC(=O)O)cc(F)n1` (stereo not shown) [Example 1, 6-[[2-fluoro-6-(5-methyl-2-pyrimidin-2-yl-7,8-dihydro-5H-pyrido[4,3-d]pyrimidin-6-yl)-4-pyridyl]amino]hexanoic acid], the pIC50 was 5.82.

`CC1c2cnc(-c3ncccn3)nc2CCN1c1cc(N2CC(C(N)=O)C2)cc(F)n1` (stereo not shown) [Example 82, 1-[2-fluoro-6-(5-methyl-2-pyrimidin-2-yl-7,8-dihydro-5H-pyrido[4,3-d]pyrimidin-6-yl)-4-pyridyl]azetidine-3-carboxamide] gave a pIC50 of 6.83.

On to `CC1c2cnc(-c3ccccn3)nc2CCN1c1cc(F)cc(N2CCN(S(C)(=O)=O)CC2)n1` (stereo not shown) [Example 72, 6-[4-fluoro-6-(4-methylsulfonylpiperazin-1-yl)-2-pyridyl]-5-methyl-2-(2-pyridyl)-7,8-dihydro-5H-pyrido[4,3-d]pyrimidine], for which the negative-log IC50 (pIC50) is 7.24.

`CC1c2cnc(-c3ncccn3)nc2CCN1c1cc(F)cc(NCCCCCC(=O)O)n1` (stereo not shown) [Example 2, 6-[[4-fluoro-6-(5-methyl-2-pyrimidin-2-yl-7,8-dihydro-5H-pyrido[4,3-d]pyrimidin-6-yl)-2-pyridyl]amino]hexanoic acid] had a pIC50 of 6.81.

As to `CCC(=O)N(C)c1cc(F)nc(N2CCc3nc(-c4ncccn4)ncc3C2C)c1` (stereo not shown) [Example 155, N-[2-Fluoro-6-(5-methyl-2-pyrimidin-2-yl-7,8-dihydro-5H-pyrido[4,3-d]pyrimidin-6-yl)-4-pyridyl]-N-methyl-propanamide], the pIC50 is 7.07.

`CC1c2cnc(-c3ncccn3)nc2CCN1c1cc(F)cc(NS(=O)(=O)c2ccccc2)n1` (stereo not shown) [Example 78, N-[4-fluoro-6-(5-methyl-2-pyrimidin-2-yl-7,8-dihydro-5H-pyrido[4,3-d]pyrimidin-6-yl)-2-pyridyl]benzenesulfonamide] gave a negative logarithm of the IC50 (pIC50) of 6.58.

In turn, `CC1c2cnc(-c3ncccn3)nc2CCN1c1cc(F)cc(N2CCOC(C)(C)C2)n1` (stereo not shown) [Example 9, 4-[4-fluoro-6-(5-methyl-2-pyrimidin-2-yl-7,8-dihydro-5H-pyrido[4,3-d]pyrimidin-6-yl)-2-pyridyl]-2,2-dimethyl-morpholine] gave a pIC50 of 7.54.

For `CC1c2cnc(-c3ccccn3)nc2CCN1c1cc(F)cc(NCC(F)F)n1` (stereo not shown) [Example 80, N-(2,2-difluoroethyl)-4-fluoro-6-[5-methyl-2-(2-pyridyl)-7,8-dihydro-5H-pyrido[4,3-d]pyrimidin-6-yl]pyridin-2-amine], the pIC50 is 6.91.

Compound `CC(=O)N1CC(Nc2cc(F)cc(N3CCc4nc(-c5ncccn5)ncc4C3C)n2)C1` (stereo not shown) [Example 139, 1-[3-[[4-fluoro-6-(5-methyl-2-pyrimidin-2-yl-7,8-dihydro-5H-pyrido[4,3-d]pyrimidin-6-yl)-2-pyridyl]amino]azetidin-1-yl]ethanone] gave a pIC50 of 5.81.

`CC1c2cnc(-c3ncccn3)nc2CCN1c1cc(N2CCC(C(=O)O)C2)cc(F)n1` (stereo not shown) [Example 38, 1-[2-fluoro-6-(5-methyl-2-pyrimidin-2-yl-7,8-dihydro-5H-pyrido[4,3-d]pyrimidin-6-yl)-4-pyridyl]pyrrolidine-3-carboxylic acid] gave a negative-log IC50 (pIC50) of 6.00.

The values are drawn from US11104674B2 (Hoffmann-La Roche Inc., priority 2016, dated 2021).
